# Tests used:
# in vivo = conditions: mouse
# [1] = system: P388 lymphocytic leukemia; assay: Drug combination efficacy study in advanced systemic P388 lymphocytic leukemia model; type: in vivo, mice
# Method: (§1) Female B6D2F1 mice (Charles River Laboratories, Raleigh, N.C.) were used in these studies. All procedures were performed in accordance with protocols approved by the SB Institutional Animal Care and Use Committee, and met or exceeded the standards of the American Association for the Accreditation of Laboratory Animal Care (AAALAC), the United States Department of Health and Human Services and all local and federal animal welfare laws.
# (§2) MAP and PCR tested P388 lymphocytic leukemia cell lines obtained originally from the National Cancer Institute Repository at Frederick Cancer Research Center, Frederick, Md., were used in these studies. P388 lymphocytic leukemia were maintained by serial i.p. transplantation in syngeneic B6D2F1 mice. […] Protocols for screening chemical agents and natural products against animal tumors and other biological systems. Cancer Chemother. […] All tumor tissues are presently in cryopreservation within the department of Molecular and Cellular Oncology.
# (§3) For efficacy studies, P388 lymphocytic leukemia were harvested aseptically from the peritoneal cavity of donor mice, pooled, diluted with Earle's Balanced Salt Solution and trypan blue, and counted using a hemocytometer. An inoculum of 0.2 ml (5×10^6/ml) was implanted i.v. in the lateral tail vein of female BDF1 mice using a 25 gauge needle. The tumor inoculum was tested for bacterial contamination as determined by a 24-hr incubation in thioglycollate broth.
# (§4) Each experiment included two groups of untreated tumor-bearing controls, and a titration of tumor cells in untreated animals (ranging from 10^1 to 10^5 so that drug-induced cell kill (NCK) could be calculated. Drug treatment was initiated 48 hrs after tumor implantation. Specific endpoints calculated from this model are % increase in median lifespan (% ILS) relative to the untreated control animals and log net change in tumor cell burden following therapy (NCK).
# [2] = as above; type: in vivo, mice; conditions: female, B6D2F1, mouse, in vivo
# Method: as §1, §2, §3, §4
# [3] = First Time in Human Study of Compound A, monotherapy once every 21 days; type: in vivo; conditions: once every 21 day schedule, prior study in humans
# [4] = cisplatin alone 4 mg/kg, ip q4dx3, first cisplatin study
# [5] = cisplatin alone 4 mg/kg, repeat cisplatin study
# [6] = 5FU 26 mg/kg alone, ip Days 2, 6, 10
# [7] = 5FU 43 mg/kg alone, ip Days 2, 6, 10
# [8] = 5FU 72 mg/kg alone, ip Days 2, 6, 10
# [9] = 5FU 120 mg/kg alone, ip Days 2, 6, 10
# [10] = ip, single agent, ip Days 2, 6, 10, gemcitabine study, read-out: MTD
# [11] = ip, single agent, ip q4dx3 Days 2, 6, 10, irinotecan study, read-out: MTD
# [12] = Compound A 2.6 mg/kg alone, ip Days 2, 6, 10, 5FU study
# [13] = Compound A 4.3 mg/kg alone, ip Days 2, 6, 10, 5FU study
# [14] = Compound A alone 4.3 mg/kg (MTD), ip q4dx3, first cisplatin study
# [15] = Compound A alone 4.3 mg/kg (MTD), doxorubicin study
# [16] = Compound A alone 6 mg/kg (MTD), irinotecan study
# [17] = Compound A alone 7.2 mg/kg (MTD), repeat cisplatin study
# [18] = Compound A alone 10 mg/kg, gemcitabine study
# [19] = doxorubicin alone 12 mg/kg, ip Days 2, 6, 10
# [20] = gemcitabine alone 200 mg/kg, ip Days 2, 6, 10
# [21] = irinotecan alone 54 mg/kg, ip q4dx3
# [22] = irinotecan alone 150 mg/kg (MTD), ip q4dx3
smiles,measurement,setting,value
"CCCCCOC(=O)Nc1nc(=O)n([C@@H]2O[C@H](C)[C@@H](O)[C@H]2O)cc1F [CAP, Capecitabine, reference compound]",MX-1 tumor growth,"MX-1 breast carcinoma; CAP alone 500 and 250 mg/kg, daily for two 5 day cycles with 2 day rest",slight delay in MX-1 tumor growth
same,MTD,in vivo,500 mg/kg
"N.N.[Cl][Pt][Cl] [Cisplatin, cisplatin, reference compound]",% ILS (increase in life span),[1]; [4],200%
same,log cell kill (net cell kill),[1]; [4],3.7 log
same,% ILS (increase in life span),[1]; [5],133%
same,log cell kill (net cell kill),[1]; [5],1.7 log
"O=c1[nH]cc(F)c(=O)[nH]1 [Compound 5FU, 5-fluorouracil, reference compound]",% ILS,[1]; [6],33%
same,Net Cell Kill,[1]; [6],[0] log
same,% ILS,[1]; [7],55%
same,Net Cell Kill,[1]; [7],[0] log
same,Net Cell Kill,"[1]; 5FU 43 mg/kg alone, ip Days 2, 6, 10, listed as 5 FU",no log cell kill
same,% ILS,[1]; [8],44%
same,Net Cell Kill,[1]; [8],[0] log
same,% ILS,[1]; [9],22%
same,Net Cell Kill,[1]; [9],[0] log
same,toxicity at dose level,"[1]; 5FU 200 mg/kg alone, ip Days 2, 6, 10",Toxic
"CS(=O)(=O)O.Cc1ccc(C(=O)N(CCCN)[C@@H](c2nc3cc(Cl)ccc3c(=O)n2Cc2ccccc2)C(C)C)cc1 [Compound A, N-(3-aminopropyl)-N-[(1R)-1-[7-chloro-3,4-dihydro-4-oxo-3-(phenylmethyl)-2-quinazolinyl]-2-methylpropyl]-4-methylbenzamide, mesylate salt]",MTD,"[2]; intraperitoneal, increased from 7.2 alone, repeat cisplatin study, read-out: MTD of Compound A in combination with cisplatin",12 mg/kg
same,MTD,"[2]; ip, single agent, ip Days 2, 6, 10, doxorubicin study, read-out: MTD",4.3 mg/kg
same,MTD,[2]; [10],≥ 10 mg/kg
same,MTD,"[2]; ip, single agent, ip q4dx3, 5FU study, read-out: MTD",7.2 mg/kg
same,MTD,"[2]; ip, single agent, ip q4dx3, first cisplatin study, read-out: MTD",4.3 mg/kg
same,MTD,"[2]; ip, single agent, ip q4dx3, repeat cisplatin study, read-out: MTD",7.2 mg/kg
same,MTD,[2]; [11],6 mg/kg
same,% ILS,[1]; [12],78%
same,Net Cell Kill,[1]; [12],[0] log
same,% ILS,[1]; [13],122%
same,Net Cell Kill,[1]; [13],[1.1] log
same,% ILS,"[1]; Compound A 7.2 mg/kg (MTD) alone, ip Days 2, 6, 10, 5FU study",178%
same,toxicity at dose level,"[1]; Compound A 12 mg/kg alone, ip Days 2, 6, 10, 5FU study",Toxic
same,toxicity at dose level,"[1]; Compound A 20 mg/kg alone, ip Days 2, 6, 10, 5FU study",Toxic
same,% ILS (increase in life span),[1]; [14],144%
same,log cell kill (net cell kill),[1]; [14],1.8 log
same,% ILS (increase in life span),[1]; [15],156%
same,log cell kill (net cell kill),[1]; [15],1.3 log
same,% ILS (increase in life span),[1]; [16],167%
same,log cell kill (net cell kill),[1]; [16],3.0 log
same,% ILS (increase in life span),[1]; [17],144%
same,log cell kill (net cell kill),[1]; [17],2.2 log
same,% ILS (increase in life span),[1]; [18],211%
same,log cell kill (net cell kill),[1]; [18],6.2 log
same,MTD of Compound A in combination versus alone,"[1]; combined with 0.86 or 1.44 mg/kg cisplatin, first cisplatin study",higher MTD
same,activity against MX-1,"MX-1 breast carcinoma; Compound A alone at MTD of 10 mg/kg, q4dx3",refractory
same,MTD,in vivo,10 mg/kg
same,MTD,[3],18 mg/m^2
"COc1cccc2c1C(=O)c1c(O)c3c(c(O)c1C2=O)C[C@@](O)(C(=O)CO)C[C@@H]3O[C@H]1C[C@H](N)[C@H](O)[C@H](C)O1 [Doxorubicin, doxorubicin, reference compound]",% ILS (increase in life span),[1]; [19],89%
same,log cell kill (net cell kill),[1]; [19],no log cell kill
"Nc1ccn([C@@H]2O[C@H](CO)[C@@H](O)C2(F)F)c(=O)n1 [Gemcitabine, gemcitabine, reference compound]",MTD,[2]; [10],≥ 200 mg/kg
same,% ILS (increase in life span),[1]; [20],289%
same,log cell kill (net cell kill),[1]; [20],> 7.3 log
same,efficacy at lower doses,[1]; gemcitabine alone at 120 mg/kg or less,less effective
"CCc1c2c(nc3ccc(OC(=O)N4CCC(N5CCCCC5)CC4)cc13)-c1cc3c(c(=O)n1C2)COC(=O)[C@]3(O)CC [Irinotecan, irinotecan, reference compound]",MTD,[2]; [11],150 mg/kg
same,% ILS (increase in life span),[1]; [21],211%
same,log cell kill (net cell kill),[1]; [21],4.8 log
same,% ILS (increase in life span),[1]; [22],> 450%
same,log cell kill (net cell kill),[1]; [22],> 6.9 log
